Target: T1, SdLPMO10A (Saccharophagus degradans, UniProt Q21N34)
T1 construct: gene cbpA; AA10 catalytic domain plus CBM2; native signal peptide (24 residues) replaced by pelB, pET-26b(+), E. coli BL21(DE3) periplasm, Ni-NTA purified; N-terminal His25; Cu2+-saturated
Assay: MALDI-TOF MS of oxidized chitin oligosaccharides
Assay type: biochemical
Conditions: electron donor, 1 mM; 10 µM Cu2+-saturated enzyme; alpha-chitin; 20 mM Tris-HCl pH 8.0, 30 °C, 48 h

T1 sequence (Q21N34 entry or part of it): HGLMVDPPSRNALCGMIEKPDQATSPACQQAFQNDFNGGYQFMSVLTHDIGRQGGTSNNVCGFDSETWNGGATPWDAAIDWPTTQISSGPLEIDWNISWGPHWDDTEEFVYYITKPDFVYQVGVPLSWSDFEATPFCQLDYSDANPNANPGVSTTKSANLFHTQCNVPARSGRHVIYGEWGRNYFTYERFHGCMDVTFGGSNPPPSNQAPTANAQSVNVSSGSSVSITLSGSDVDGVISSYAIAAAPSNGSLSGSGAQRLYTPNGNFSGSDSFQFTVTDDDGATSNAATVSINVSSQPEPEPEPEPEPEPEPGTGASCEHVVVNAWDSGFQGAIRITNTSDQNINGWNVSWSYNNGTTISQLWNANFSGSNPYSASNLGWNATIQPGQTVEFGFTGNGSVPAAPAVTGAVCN

O=C1O[C@H]([C@@H](O)CO)C(O)=C1O [ascorbic acid]
MALDI-TOF MS of oxidized chitin oligosaccharides: lacking SdLPMO10A or ascorbic acid, no discernible quantity of oxidized chitin oligosaccharides was generated
